Entries after “also recorded” stand apart in the source; their conditions may differ. Strand notation (5' to 3'): a small letter for the sugar, then the base; units joined by * are phosphorothioate-linked, units joined directly phosphodiester-linked; [ ] holds rarer units or linkages, { } end groups; capitals alone tell only the bases. l = locked nucleic acid (LNA); [5mC] = 5-methylcytosine; d = 2'-deoxy (DNA)
Tests used:
[1] = tested on: HCV replicon (NNeo/C-5B); experiment: HCV replication in Huh-7 cells transfected with HCV replicon, Northern blot; type: cell-based, Hepatitis C virus; details: Huh-7 with HCV replicon; 48 hours; compared to mock and mismatch control
Experimental: We assess the efficacy of SEQ ID NO: 63 reducing HCV replication in the Huh-7 based cell model. Preliminary data on SEQ ID NO: 63 along with its truncated version SEQ ID NO: 66 (13-mer LNA-antimiR) and 4 nt mismatch control from inhibiting HCV replication in the Huh-7 cell line transfected with a HCV replicon (NNeo/C-5B). The different LNA-antimiR molecules along with a 2′ OMe antisense and scramble oligonucleotide were transfected into Huh-7 cells, HCV was allowed to replicate for 48 hours. Total RNA samples extracted from the Huh-7 cells were subjected to Northern blot analysis.

[2] = tested on: miR-122a target genes (Bckdk, aldolase A, Nrdg3, CD320, Vldlr); experiment: miR-122a target mRNA levels in mouse liver by qPCR; type: in vivo; details: for Bckdk and AldoA mRNA levels compared to SEQ ID NO: 61 treated mice (in words) / upregulation of miR-122a target genes Bckdk and AldoA (in words): liver, 48 hours after last dose (Day 6)
Experimental: The saline control and different LNA-antimiR-122a treated animals were sacrificed 48 hours after last dose (Day 6), and total RNA was extracted from liver samples as using Trizol reagent according to the manufacturer's recommendations (Invitrogen, USA). The mRNA levels were assessed by real-time quantitative RT-PCR for two miR-122a target genes, Bckdk (branched chain ketoacid dehydrogenase kinase, ENSMUSG00000030802) and aldolase A (aldoA, ENSMUSG00000030695), respectively, as well as for GAPDH as control, using Taqman assays according to the manufacturer's instructions (Applied biosystems, USA).
NMRI mice were administered intravenously with SEQ ID NO: 61 SEQ ID NO: 61 using daily doses ranging from 2.5 to 25 mg/kg for three consecutive days. Animals were sacrificed 24 hours, 1, 2 or 3 weeks after last dose. Livers were harvested divided into pieces and submerged in RNAlater (Ambion) or snap-frozen. RNA was extracted with Trizol reagent according to the manufacturer's instructions (Invitrogen) from the RNAlater tissue, except that the precipitated RNA was washed in 80% ethanol and not vortexed. The RNA was used for mRNA TaqMan qPCR according to manufacturer (Applied biosystems) or northern blot (see below). The snap-frozen pieces were cryo-sectioned for in situ hybridizations.
Mice were treated with different SEQ ID NO: 61 SEQ ID NO: 61 doses for three consecutive days, as described above and sacrificed 24 hours after last dose. Total RNA extracted from liver was subjected to qPCR. […] Total liver RNA from 2 to 3 mice per group sacrificed 24 hours after last dose were subjected to qPCR for the indicated genes. Shown in FIG. 9 is mRNA levels relative to Saline group, n=2-3 (2.5-12.5 mg/kg/day: n=2, no SD). Shown is also the mismatch control (m, SEQ ID NO: 65).
Assayed genes: Nrdg3 Aldo A, Bckdk, CD320 with predicted miR-122 target site.
NMRI female mice were treated with 25 mg/kg/day SEQ ID NO: 61SEQ ID NO: 61 along with saline control for three consecutive days and sacrificed 1, 2 or 3 weeks after last dose, respectively. RNA was extracted from livers and mRNA levels of predicted miR-122a target mRNAs, selected by microarray data were investigated by qPCR. Three animals from each group were analysed.
mRNA levels are normalized to the individual GAPDH levels and to the mean of the Saline treated group at each individual time point. Included are also the values from the animals sacrificed 24 hours after last dose. Shown is mean and standard deviation, n=3 (24 h n=3)
The same liver RNA samples as in previous example were investigated for Vldlr induction.
NMRI female mice were treated with indicated doses of LNA-antimiR (SEQ ID NO: 61) along with a mismatch control (m, SEQ ID NO: 65), saline and antagomir (SPC3595) for three consecutive days and sacrificed 24 hours after last dose (as in example 11 “old design”, n=5). miR-122 levels were analyzed by qPCR and normalized to the saline treated group.
mRNA quantification of selected genes was done using standard Tag Man assays (Applied Biosystems). The reverse transcription reaction was carried out with random decamers, 0.5 μg total RNA, and the M-MLV RT enzyme from Ambion according to a standard protocol. First strand cDNA was subsequently diluted 10 times in nuclease-free water before addition to the RT-PCR reaction mixture. A two-fold cDNA dilution series from liver total RNA of a saline-treated animal or mock transfected cells cDNA reaction (using 2.5 times more total RNA than in samples) served as standard to ensure a linear range (Ct versus relative copy number) of the amplification. Applied Biosystems 7500 or 7900 real-time PCR instrument was used for amplification.

[3] = tested on: miR-122a; experiment: Plasma cholesterol in LNA anti-miR122 treated mice; type: in vivo, mouse; details: Day 6; i.p. on day 0, 2 and 4
Experimental: In vivo study: Ten groups of animals (female C57/BL6; 3 mice per group) were treated in the following manner. Group 1 animals were injected with 0.2 ml saline by i.p. on day 0, day 2 and day 4. Groups 2-10 were dosed by i.p. with three different conc. (25 mg/kg, 5 mg/kg and 1 mg/kg) of either LNA antimiR-122a/SEQ ID NO: 61 (group 2-4), LNA antimir-122a/SEQ ID NO: 66 (group 5-7) or LNA antimir-122a/SEQ ID NO: 63 (group 8-10); the LNA antimir-122a sequences are given in the Table 1. All three LNA antimiR-122a oligonucleotides target the liver-specific miR-122a. The doses were calculated from the Day 0 body weights of each animal.
The animals were sacrificed 48 hours after last dose (Day 6), retro-orbital blood was collected in tubes containing EDTA and the plasma fraction harvested and stored frozen −80° C. for cholesterol analysis. At sacrifice livers were dissected and one portion was cut into 5 mm cubes and immersed in 5 volumes of ice-cold RNAlater. […]
Total cholesterol level was measured in plasma using a colometric assay Cholesterol CP from ABX Pentra. Cholesterol was measured following enzymatic hydrolysis and oxidation (2,3). […] 250 μl reagent was added and within 5 min the cholesterol content measured at a wavelength of 540 nm. […] The cholesterol level was determined by subtraction of the background and presented relative to the cholesterol levels in plasma of saline treated mice.

Substance	HCV RNA / inhibition of HCV replication (in words) [1]	Bckdk and AldoA mRNA levels compared to SEQ ID NO: 61 treated mice (in words) [2]	upregulation of miR-122a target genes Bckdk and AldoA (in words) [2]	plasma cholesterol compared to saline control (in words) [3]	Vldlr induction in liver (in words) ([2]; 25 mg/kg/day for three consecutive days, 1, 2 or 3 weeks after last dose)	mRNA levels of predicted miR-122a target mRNAs over time (in words) ([2]; NMRI female mice, 25 mg/kg/day for three consecutive days, 1, 2 or 3 weeks after last dose)	de-repression of miR-122 target mRNAs (AldoA, Bckdk, CD320, Nrdg3) (in words) ([2]; NMRI female mice, three consecutive days, 24 hours after last dose, compared to antagomir treated mice, listed as LNA-antimiR)	induction of miR-122a target genes (Nrdg3, Aldo A, Bckdk, CD320) (in words) ([2]; different doses for three consecutive days, 24 hours after last dose)
5′-CcAttGTcaCaCtCC-3′ (antisense CCATTGTCACACTCC; sugars from the 5' end ldlddllddldldll, backbone and methylation of C not given here) [SEQ ID NO: 63]	significant reduction of HCV RNA	significantly higher	clear dose-dependent upregulation	markedly lowered level of plasma cholesterol				
5′-ccAttGtcAcaCtcCa-3′ (antisense CCATTGTCACACTCCA; sugars from the 5' end ddlddlddlddlddld, backbone and methylation of C not given here) [SEQ ID NO: 61]			clear dose-dependent upregulation		transient up-regulation	transient induction followed by a restoration of normal expression levels	dose-dependent de-repression; also recorded: consistently higher	clear dose-dependent induction
5′-AttGTcaCaCtCC-3′ (antisense lA*dT*dT*lG*lT*dC*dA*l[5mC]*dA*l[5mC]*dT*l[5mC]*l[5mC]) [SEQ ID NO: 66]	comparable efficacy with SEQ ID NO: 63	significantly higher	clear dose-dependent upregulation	markedly lowered level of plasma cholesterol				

Reference: patent US8440637B2, “Combination treatment for the treatment of hepatitis C virus infection” (priority 2007, dated 2013)
